From US9572881B2, “Halogenated compounds for photodynamic therapy” (Nanoquantum Sciences, Inc., priority 2012, dated 2017)
Several values for one entry are separate records, joined by “and”; a condition that tells them apart may be missing. Identical values can stand only once.

Legend:
[1] = Absorption spectra and extinction coefficients of dyes; format: physicochemical
Procedure: Absorption spectra were measured at RT on a Perking Elmer Lambda 35 UV/Vis spectrophotometer. […] The stock solution was diluted (1:2000) and the absorbance was measured in a 5-cm standard quartz cell. All dye concentrations were in the range of 1.1 to 2.0×10^−7 M. The extinction coefficients were calculated according to Lambert-Beer's law.

[2] = Fluorescence emission spectra and quantum yield relative to HITC; format: physicochemical; conditions: for QY (fluor): given as fraction in synthesis example
Procedure: Fluorescence spectra for the dyes were determined at RT on a Varian Cary Eclipse spectrofluorometer in a standard 1-cm quartz cell. The spectra were corrected. All concentrations of the fluorophores were chosen to be between 0.2 and 1.0 μM.
For the determination of the quantum yields (QY), the integrated relative intensities of the dyes or dye-protein conjugates, were measured against HITC as the reference. All absorbances at excitation wavelength (λexc) were in the range of 0.04-0.08 (when measured in a 1-cm cell).
The QY of each sample was independently measured 3-4 times and the average value was calculated.

[3] = Phototoxicity (glow lamp) and dark toxicity by hemolysis of bovine erythrocytes; format: cell-based; conditions: bovine, bovine erythrocytes, Glow Lamp; for hemolysis at 30 min, 0.5 µM: exposure 30 min
Procedure: (§1) Bovine erythrocytes were isolated from blood plasma stored with sodium citrate. 1 mL of bovine blood was treated at centrifuge (3,000 rpm) for 10 min to precipitate erythrocytes. The supernatant was decanted, 2 mL of physiological solution were added, treated and erythrocytes were precipitated with centrifuge. The washing procedure was repeated for 3 times and the precipitated erythrocytes were collected. […] Cells were dye-incubated for 45 minutes at 37° C. in the dark. Then the examined suspensions of cells (erythrocytes) were placed at a distance of 30-cm from a 250 W glow red-lamp equipped with a water-based heat filter and irradiated with occasional stirring. After irradiation, cells were stored at 4° C. for 15 hours. […] The hemolysis level (percentage of hemolyzed cells) was determined as the ratio of absorbances of the supernatant and a solution of 100% hemolysed cells. The 100% hemolysis was taken as the value obtained when the given number of erythrocytes were suspended in distilled water.

bovine erythrocytes = assay: as above; format: cell-based; conditions: Dark
Procedure: as §1

[4] = Singlet oxygen quantum yield, DPBF scavenger method in ethanol; format: physicochemical; conditions: measured in ethanol, 650 nm laser, ICG reference
Procedure: The modified relative photochemical method of Spiller W. et al. (J. Porphyrins Phthalocyanines, 1998, V. 2, 145-158) utilizing 1,3-diphenylisobenzofuran (DPBF) as a chemical scavenger was used to determine the photosensitiser's singlet oxygen quantum yields (ΦΔ) in ethanol solutions.
Ethanolic solutions containing DPBF (10 μM) and sensitizers with absorbance (optical density) in a range between 0.09 and 0.10 at 650 nm (measured in a standard 1-cm quartz cell) were prepared. Samples were saturated with oxygen by bubbling. Next, 3 mL of the solution were placed in a 1-cm cell equipped with a stirring bar and a 10 mW, 650 nm diode laser was hermetically attached to the top of cuvette so as to avoid solvent evaporation and to provide a light beam direction from top to bottom of the cuvette. The solution in the cuvette was irradiated with the diode laser under continuous stirring for a certain time. DPBF consumption was determined by monitoring DPBF bleaching over irradiation time using absorption spectroscopy at 411 nm (extinction coefficient 22,000 M^−1 cm^−1). At least six absorption spectra were obtained for each solution at different irradiation times until the DPBF absorbance reduced at least to the 10% of the initial absorbance.
The decrease of DPBF absorbance at 411 nm versus irradiation time was plotted for each photosensitizer and the DPBF degradation rate constant (K) characterizing the reaction rate of singlet oxygen with DPBF in presence of a sensitizer was calculated.

[5] = cited from earlier work
[6] = ethanol; reference value from Cardillo et al.; cited from earlier work
[7] = background statement, at ~780 nm; cited from earlier work

Row | Extinction Coefficient ([1]; Methanol) | Extinction Coefficient ([1]; Water) | Emission max. ([2]; Water) [nm] | SMILES | Absorption max. ([1]; Methanol) | Absorption max. ([1]; Water) | Emission max. ([2]; Methanol) [nm] | Fluorescence quantum yield ([2]; Methanol) [%] | hemolysis at 60 min, 0.1 µM ([3]; exposure 60 min) [%] | hemolysis at 30 min, 0.5 µM [3] [%] | Hemolysis (bovine erythrocytes; 10 μM) [%] | Singlet oxygen generation quantum yield ΦΔ [4] [%] | Hemolysis (bovine erythrocytes; 50 μM) [%] | Hemolysis (bovine erythrocytes; 5 μM) [%] | other results
1 | 210,000 M^−1cm^−1 | 100,000 M^−1cm^−1 | 786 | CC1(CCCCCC(=O)O)C(/C=C/C=C/C=C/C=C2\N(CCCS(=O)(=O)O)c3cc(I)c(I)c(I)c3C2(C)CCCCCC(=O)O)=[N+](CCCS(=O)(=O)[O-])c2cc(I)c(I)c(I)c21 (centres unmarked) [I-86, 3-(3-(5-carboxypentyl)-2-7-[3-(5-carboxypentyl)-4,5,6-triiodo-3-methyl-1-(3-sulfopropyl)-2,3-dihydro-1H-2-indolyliden]-1,3,5-heptatrienyl-4,5,6-triiodo-3-methyl-3H-1-indoliumyl)-1-propanesulfonate] | 765 nm | 721 nm and 760 nm | 795 | 44 | 70 | 74 | 3 | 13 |  |  | Absorption max. ([1]; BSA conjugate): 778 nm; Extinction coefficient ε at λmax (abs) ([1]; water, synthesis example, no unit): 210,000; Emission max. ([2]; BSA conjugate): 796 nm; Fluorescence quantum yield ([2]; BSA conjugate, subject to D/P): 5-7%; QY (fluor) ([2]; methanol): 0.44; QY (fluor) ([2]; water): 0.006
2 |  |  |  | CN1\C(=C/C=C/C=C/C=C/C2=[N+](C)c3cc(I)c(I)c(I)c3C2(C)C)C(C)(C)c2c1cc(I)c(I)c2I.[I-] [I-76, 4,5,6-triiodo-1,3,3-trimethyl-2-[7-(4,5,6-triiodo-1,3,3-trimethyl-2,3-dihydro-1H-2-indolyliden)-1,3,5-heptatrienyl]-3H-indolium iodide] | 754 nm and 755 nm |  | 785 | 43 | 43 | 46 |  | 50 | 12 | 2 | 
3 | 200,000 M^−1cm^−1 | 114,000 M^−1cm^−1 | 810 | CC1(C)C(/C=C/C=C/C=C/C=C2\N(CCCCS(=O)(=O)[O-])c3ccc4ccccc4c3C2(C)C)=[N+](CCCCS(=O)(=O)[O-])c2ccc3ccccc3c21.[Na+] [ICG, Indocyanine green, reference compound] |  |  | 818 | 16 |  |  |  | 12 |  |  | quantum yield (reporter) ([5]; in water, background statement): 0.5-1.3%; singlet oxygen quantum yield ΦΔ of reference [6]: 12%; extinction coefficients [7]: 200,000 M^−1 cm^−1
4 |  |  |  | CN1\C(=C/C=C/C=C/C=C/C2=[N+](C)c3ccccc3C2(C)C)C(C)(C)c2ccccc21.[I-] [HITC, 1,1′,3,3,3′,3′-hexamethylindotricarbocyanine, reference compound] | 740 nm |  | 768 | 28 |  |  | 6.7 | 5 |  | 2.0 | hemolysis at 60 min, 1 µM ([3]; 1 μM, exposure 60 min): 4.4%; hemolysis at 120 min, 1 µM ([3]; 1 μM, exposure 120 min): 5.4%; hemolysis at 60 min, 5 µM ([3]; 5 μM, exposure 60 min): 65%; hemolysis at 120 min, 5 µM ([3]; 5 μM, exposure 120 min): 74%; QY of reference ([5]; in methanol, reference standard): 28%

Row | SMILES | Extinction Coefficient ([1]; Methanol) | Extinction Coefficient ([1]; Water) | Emission max. ([2]; Water) [nm] | Absorption max. ([1]; Methanol) | Absorption max. ([1]; Water) | Emission max. ([2]; Methanol) [nm] | Fluorescence quantum yield ([2]; Methanol) [%] | hemolysis at 60 min, 0.1 µM ([3]; exposure 60 min) [%] | hemolysis at 30 min, 0.5 µM [3] [%] | Hemolysis (bovine erythrocytes; 10 μM) [%] | Singlet oxygen generation quantum yield ΦΔ [4] [%] | Hemolysis (bovine erythrocytes; 50 μM) [%] | Hemolysis (bovine erythrocytes; 5 μM) [%] | other results
5 | CN1\C(=C/C=C/C=C/C=C/C2=[N+](C)c3ccc(I)cc3C2(C)C)C(C)(C)c2cc(I)ccc21.[I-] [I-25] |  |  | 779 | 753 nm | 750 nm | 784 | 30 | 39 | 83 |  | 20 | 51 |  | Absorption max. ([1]; Chloroform): 771 nm; Emission max. ([2]; Chloroform): 801 nm
